The values below come from patent US11634451B2, “Method for the site-specific enzymatic labelling of nucleic acids in vitro by incorporation of unnatural nucleotides” (The Scripps Research Institute, priority 2013, dated 2023).

The test system of one experiment is OneTaq polymerase. As to the kind of experiment: PCR-based screen and amplification of DNA containing unnatural base pairs, OneTaq (Example 1). The class given is biochemical. The conditions noted are these: for Amplification: -^a = no amplification was detected. On the procedure:
(§1) The triphosphates of the 6 group were prepared from the previously reported nucleosides (Kubelka, T., Slavetinska, L., Eigner, V. and Hocek, M. Synthesis of 2,6-disubstituted pyridin-3-yl C-2′-deoxyribonucleosides through chemoselective transformations of bromo-chloropyridine C-nucleosides. Org. Biomol. Chem., 11, 4702-4718) according to Ludwig, J. and Eckstein, F. Rapid and efficient synthesis of nucleoside 5′-0-(1-thiotriphosphates), 5′-triphosphates and 2′,3′-cyclophosphorothioates using 2-chloro-4H-1,3,2-benzodioxaphosphorin-4-one. J. Org. Chem., 54, 631-635. The purity of all other triphosphates was confirmed by MALDI-TOF and UV-VIS. Taq and OneTaq DNA polymerases were purchased from New England Biolabs (Ipswich, Mass.). A mixture of dNTPs was purchased from Fermentas (Glen Burnie, Md.). SYBR Green I Nucleic Acid Gel Stain (10,000×) was purchased from Life Technologies (Carlsbad, Calif.). The synthesis of the DNA templates, D8 (Malyshev, D. A., Dhami, K., Quach, H. T., Lavergne, T., Ordoukhanian, P., Torkamani, A. and Romesberg, F. E. Efficient and sequence-independent replication of DNA containing a third base pair establishes a functional six-letter genetic alphabet. Proc. Natl. Acad. Sci. USA, 109, 12005-12010), used for screening rounds 1-5, and D6 (Malyshev, D. A., Seo, Y. J., Ordoukhanian, P. and Romesberg, F. E. PCR with an expanded genetic alphabet. J. Am. Chem. Soc., 131, 14620-14621), used for all other amplifications, was described previously. Sanger sequencing was carried out as described previously (Malyshev, D. A., Dhami, K., Quach, H. T., Lavergne, T., Ordoukhanian, P., Torkamani, A. and Romesberg, F. E. Efficient and sequence-independent replication of DNA containing a third base pair establishes a functional six-letter genetic alphabet. Proc. Natl. Acad. Sci. USA, 109, 12005-12010). Raw Sanger sequencing traces were used to determine the percent retention of the unnatural base pairs, which was converted to fidelity per doubling, as described (Malyshev, D. A., Dhami, K., Quach, H. T., Lavergne, T., Ordoukhanian, P., Torkamani, A. and Romesberg, F. E. Efficient and sequence-independent replication of DNA containing a third base pair establishes a functional six-letter genetic alphabet. Proc. Natl. Acad. Sci. USA, 109, 12005-12010; Malyshev, D. A., Seo, Y. J., Ordoukhanian, P. and Romesberg, F. E. PCR with an expanded genetic alphabet. J. Am. Chem. Soc., 131, 14620-14621).
(§2) All PCR amplifications were performed in a CFX Connect Real-Time PCR Detection System (Bio-Rad), in a total volume of 25 μL using the following conditions: 1× OneTaq reaction buffer, 0.5× Sybr Green I, MgSO4 adjusted to 4.0 mM, 0.2 mM of each dNTP, 50 μM of each unnatural triphosphate, […] of Primer1 and Primer2 (See Table 2), and 0.02 U/μl of the DNA polymerase. Other conditions specific for each round of screening are described in Table 3. Amplified products were purified using DNA Clean and Concentrator-5 spin columns from Zymo Research (Irvine, Calif.). After purification, the PCR products were sequenced on a 3730 DNA Analyzer (Applied Biosystems) to determine the retention of the unnatural base pair as described below. Fidelity was characterized from unnatural base pair (UBP) retention as determined by sequencing with Primer1 on a 3730 DNA Analyzer (Applied Biosystems).
(§3) Specific PCR assay conditions. PCR with the most promising UBPs was carried out with the conditions as described in Table 3. PCR products were further purified on […] gels, followed by single band excision and subsequent clean up using the Zymo Research Zymoclean Gel DNA Recovery Kit. After elution with 20 μl of water, the DNA concentration was measured using fluorescent dye binding (Quant-iT dsDNA HS Assay kit, Life Technologies), and purified amplicons were sequenced in triplicate with both Primer1 and Primer2 to determine UBP retention and thus amplification fidelity. […]

A further experiment has as its target T1, Taq polymerase (Thermus aquaticus, UniProt P19821).
T1 construct: purchased New England Biolabs (Ipswich, Mass.)
Briefly: PCR-based screen and amplification of DNA containing unnatural base pairs, Taq (Example 1). The class given is biochemical. On the procedure:
as §1, §2, §3

Where [1] appears, read: ^b 10 pg D6 template, 24 cycles, OneTaq polymerase, 68° C. for 10 s.
Setting [2] is: OneTaq, 16 cycles, 1 min extension.
The mark [3] stands for this setting: OneTaq, 1 min Extension, 52 cycles, D6 template.
[4] abbreviates: Taq, 10 s Extension, 52 cycles, D6 template.
The mark [5] stands for this setting: ^a 100 pg D8 template, 16 cycles, Taq polymerase, 68° C. for 60 s.

Marks after values point to notes of the source that are not given here. Where only a bound is given, the exact number is not on record here.

T1 sequence (P19821 whole entry): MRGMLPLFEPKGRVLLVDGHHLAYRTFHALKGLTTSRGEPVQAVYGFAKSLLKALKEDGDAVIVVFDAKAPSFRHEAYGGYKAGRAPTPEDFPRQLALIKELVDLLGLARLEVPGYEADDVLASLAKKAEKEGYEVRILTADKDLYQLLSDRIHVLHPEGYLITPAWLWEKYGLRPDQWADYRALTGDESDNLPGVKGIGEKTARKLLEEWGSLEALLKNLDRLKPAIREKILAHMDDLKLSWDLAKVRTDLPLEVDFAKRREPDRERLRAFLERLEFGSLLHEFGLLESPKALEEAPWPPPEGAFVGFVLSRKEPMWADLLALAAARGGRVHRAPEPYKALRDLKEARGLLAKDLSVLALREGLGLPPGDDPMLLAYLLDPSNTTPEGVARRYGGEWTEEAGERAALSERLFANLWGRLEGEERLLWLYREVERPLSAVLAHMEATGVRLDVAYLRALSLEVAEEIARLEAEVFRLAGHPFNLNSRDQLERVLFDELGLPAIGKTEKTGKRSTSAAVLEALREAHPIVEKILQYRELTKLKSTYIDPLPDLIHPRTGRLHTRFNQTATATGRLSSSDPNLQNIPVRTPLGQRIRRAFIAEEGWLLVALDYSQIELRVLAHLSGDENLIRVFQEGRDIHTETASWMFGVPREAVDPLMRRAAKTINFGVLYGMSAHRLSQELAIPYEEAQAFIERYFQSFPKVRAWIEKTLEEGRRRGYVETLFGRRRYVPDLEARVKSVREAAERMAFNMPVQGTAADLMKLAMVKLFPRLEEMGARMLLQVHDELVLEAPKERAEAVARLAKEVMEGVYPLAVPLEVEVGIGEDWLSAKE

Take `COc1cc(I)ccc1[C@H]1C[C@H](O)[C@@H](COP(=O)(O)OP(=O)(O)OP(=O)(O)O)O1.O=P(O)(O)OP(=O)(O)OP(=O)(O)OC[C@H]1O[C@@H](n2ccc3ncccc3c2=S)C[C@@H]1O` [SNICS-IMO]: the “Retention, %” value in the experiment with OneTaq polymerase (setting [1]) is on record as 88^b %.
As for `COc1cc(C)ccc1[C@H]1C[C@H](O)[C@@H](COP(=O)(O)OP(=O)(O)OP(=O)(O)O)O1.O=P(O)(O)OP(=O)(O)OP(=O)(O)OC[C@H]1O[C@@H](n2ccc3ccsc3c2=S)C[C@@H]1O` [TPT3-MMO2], in the experiment on OneTaq polymerase (setting [2]), the “Fidelity, %” value amounted to 99.06 ± 0.40%; the “Retention, %” value amounted to 90.95 ± 3.63%; the Amplification amounted to 1096.
With `COc1cc(I)c(F)cc1[C@H]1C[C@H](O)[C@@H](COP(=O)(O)OP(=O)(O)OP(=O)(O)O)O1.O=P(O)(O)OP(=O)(O)OP(=O)(O)OC[C@H]1O[C@@H](n2cc(F)c3ccsc3c2=S)C[C@@H]1O` [FTPT3-FIMO], in the experiment with OneTaq polymerase (setting [3]), the “Amplification, ×10^12” value is given as 8.2 ×10^12; the “Fidelity per Doubling, %” value came to 99.65 ± 0.08%; the “Retention, %” value is listed as 86 ± 3%. Moreover, on Taq polymerase (setting [4]), the “Amplification, ×10^12” value is 4.8 ×10^12; the “Fidelity per Doubling, %” value is 99.60 ± 0.09%; the “Retention, %” value came out at 84 ± 3%.
`Cc1ccc([C@H]2C[C@H](O)[C@@H](COP(=O)(O)OP(=O)(O)OP(=O)(O)O)O2)c(Cl)n1.O=P(O)(O)OP(=O)(O)OP(=O)(O)OC[C@H]1O[C@@H](n2ccc3ccsc3c2=S)C[C@@H]1O` [TPT3-TOK580]: in the experiment with OneTaq polymerase (setting [2]), the “Fidelity, %” value is reported as <85 ^b %; the “Retention, %” value is <50 ^b %; the Amplification was 1056. Moreover, in the experiment on OneTaq polymerase (OneTaq, 16 cycles, 1 min extension, listed as dTPT3-dTOK580), the “Retention, %” value was “poorly replicated”.
With `C#Cc1cc(OC)c([C@H]2C[C@H](O)[C@@H](COP(=O)(O)OP(=O)(O)OP(=O)(O)O)O2)cc1F.O=P(O)(O)OP(=O)(O)OP(=O)(O)OC[C@H]1O[C@@H](n2ccc3ncccc3c2=S)C[C@@H]1O` [SNICS-FEMO], the “Retention, %” value in the experiment with OneTaq polymerase (setting [1]) is 95^b %.
Consider `COc1cc2ccccc2cc1[C@H]1C[C@H](O)[C@@H](COP(=O)(O)OP(=O)(O)OP(=O)(O)O)O1.O=P(O)(O)OP(=O)(O)OP(=O)(O)OC[C@H]1O[C@@H](n2ccc3ccccc3c2=S)C[C@@H]1O` [SICS-NaM], for which, on Taq polymerase (setting [5]), the “Retention, %” value is 99^a %.
As for `CSc1nc(C)ccc1[C@H]1C[C@H](O)[C@@H](COP(=O)(O)OP(=O)(O)OP(=O)(O)O)O1.O=P(O)(O)OP(=O)(O)OP(=O)(O)OC[C@H]1O[C@@H](n2ccc3ccsc3c2=S)C[C@@H]1O` [TPT3-TOK588], in the experiment with OneTaq polymerase (setting [2]), the “Fidelity, %” value was 94.99 ± 1.13%; the “Retention, %” value is on record as 61.98 ± 7.09%; the Amplification came to 666. Also, the “Retention, %” value in the experiment on OneTaq polymerase (OneTaq, 16 cycles, 1 min extension, listed as dTPT3-dTOK588) is recorded as 62%.
In the case of `C#Cc1cc(OC)c([C@H]2C[C@H](O)[C@@H](COP(=O)(O)OP(=O)(O)OP(=O)(O)O)O2)cc1F.O=P(O)(O)OP(=O)(O)OP(=O)(O)OC[C@H]1O[C@@H](n2ccc3ccccc3c2=S)C[C@@H]1O` [SICS-FEMO], the “Retention, %” value in the experiment with OneTaq polymerase (setting [1]) is 92^b %.
The same measure, in the same setting: next, `COc1cc(N=[N+]=[N-])ccc1[C@H]1C[C@H](O)[C@@H](COP(=O)(O)OP(=O)(O)OP(=O)(O)O)O1.O=P(O)(O)OP(=O)(O)OP(=O)(O)OC[C@H]1O[C@@H](n2ccc3ccsc3c2=S)C[C@@H]1O` [TPT3-ZMO]: 86^b %.
Regarding `C#Cc1cc(OC)c([C@H]2C[C@H](O)[C@@H](COP(=O)(O)OP(=O)(O)OP(=O)(O)O)O2)cc1F.O=P(O)(O)OP(=O)(O)OP(=O)(O)OC[C@H]1O[C@@H](n2ccc3ccsc3c2=S)C[C@@H]1O` [TPT3-FEMO], in the experiment on OneTaq polymerase (setting [3]), the “Amplification, ×10^12” value is listed as 10.4 ×10^12; the “Fidelity per Doubling, %” value came out at 99.55 ± 0.03%; the “Retention, %” value turned out to be 82.2 ± 1.0%. At Taq polymerase (setting [4]), the “Amplification, ×10^12” value is 5.0 ×10^12; the “Fidelity per Doubling, %” value is recorded as 99.44 ± 0.09%; the “Retention, %” value is 79 ± 3%.
`Cc1ccc([C@H]2C[C@H](O)[C@@H](COP(=O)(O)OP(=O)(O)OP(=O)(O)O)O2)c(N)n1.O=P(O)(O)OP(=O)(O)OP(=O)(O)OC[C@H]1O[C@@H](n2ccc3ccsc3c2=S)C[C@@H]1O` [TPT3-TOK586]: in the experiment on OneTaq polymerase (setting [2]), the “Fidelity, %” value was <85 ^b %; the “Retention, %” value was <50 ^b %; the Amplification came to 948. The “Retention, %” value with OneTaq polymerase (OneTaq, 16 cycles, 1 min extension, listed as dTPT3-dTOK586) is listed as “poorly replicated”.
On to `COc1cc(I)ccc1[C@H]1C[C@H](O)[C@@H](COP(=O)(O)OP(=O)(O)OP(=O)(O)O)O1.O=P(O)(O)OP(=O)(O)OP(=O)(O)OC[C@H]1O[C@@H](n2cc(F)c3ccsc3c2=S)C[C@@H]1O` [FTPT3-IMO], for which, in the experiment with OneTaq polymerase (setting [3]), the “Amplification, ×10^12” value was 7.1 ×10^12; the “Fidelity per Doubling, %” value is 99.38 ± 0.05%; the “Retention, %” value is 76.8 ± 1.6%. Moreover, at Taq polymerase (setting [4]), the “Amplification, ×10^12” value is 5.6 ×10^12; the “Fidelity per Doubling, %” value is 99.54 ± 0.13%; the “Retention, %” value amounted to 82 ± 5%.
With `COc1cc(C#N)ccc1[C@H]1C[C@H](O)[C@@H](COP(=O)(O)OP(=O)(O)OP(=O)(O)O)O1.O=P(O)(O)OP(=O)(O)OP(=O)(O)OC[C@H]1O[C@@H](n2cc(F)c3ccsc3c2=S)C[C@@H]1O` [FTPT3-CNMO], on Taq polymerase (setting [5]), the “Retention, %” value was 94^a %.
For `CSc1ccc(C2CC(O)C(CO)O2)c(SC)n1.OCC1OC(n2ccc3ccsc3c2=S)CC1O` (stereo not shown) [TPT3-TOK576], in the experiment on OneTaq polymerase (setting [2]), the “Fidelity, %” value was determined as 98.35 ± 0.14%; the “Retention, %” value was 85.20 ± 1.12%; the Amplification came to 780. Besides, the “Retention, %” value in the experiment on OneTaq polymerase (OneTaq, 16 cycles, 1 min extension, listed as dTPT3-dTOK576) amounted to 85%.
Regarding `COc1cc2ccccc2cc1[C@H]1C[C@H](O)[C@@H](COP(=O)(O)OP(=O)(O)OP(=O)(O)O)O1.O=P(O)(O)OP(=O)(O)OP(=O)(O)OC[C@H]1O[C@@H](n2ccc3ncccc3c2=S)C[C@@H]1O` [SNICS-NaM], at Taq polymerase (setting [5]), the “Retention, %” value is 90^a %.
Take `COc1cc(Cl)ccc1[C@H]1C[C@H](O)[C@@H](COP(=O)(O)OP(=O)(O)OP(=O)(O)O)O1.O=P(O)(O)OP(=O)(O)OP(=O)(O)OC[C@H]1O[C@@H](n2ccc3ccsc3c2=S)C[C@@H]1O` [TPT3-CIMO]: in the experiment with OneTaq polymerase (setting [1]), the “Retention, %” value is 90^b %.
On to `COc1cc(N=[N+]=[N-])ccc1[C@H]1C[C@H](O)[C@@H](COP(=O)(O)OP(=O)(O)OP(=O)(O)O)O1.O=P(O)(O)OP(=O)(O)OP(=O)(O)OC[C@H]1O[C@@H](n2cc(F)c3ccsc3c2=S)C[C@@H]1O` [FTPT3-ZMO], for which the “Retention, %” value at Taq polymerase (setting [5]) is 88^a %.
On to `COc1ccc([C@H]2C[C@H](O)[C@@H](COP(=O)(O)OP(=O)(O)OP(=O)(O)O)O2)c(OC)c1.O=P(O)(O)OP(=O)(O)OP(=O)(O)OC[C@H]1O[C@@H](n2ccc3ccsc3c2=S)C[C@@H]1O` [TPT3-DMO], for which, in the experiment on OneTaq polymerase (setting [2]), the “Fidelity, %” value amounted to 98.23 ± 0.23%; the “Retention, %” value is listed as 84.02 ± 1.92%; the Amplification worked out at 864.
